Where a name gives a salt, the structure may show the parent alone.
The compounds below were run on LNCaP cells (assay: LNCaP cell viability assay (MTS)). Settings: Homo sapiens, LNCaP cell line, 48 hours.
Format: cell-based
Experimental: LNCaP cell line was used for the cell viability assay. LNCaP cells were plated in 96-well plates at a density of 5000 cells per well. After 24 hours of plating, the cells were treated with increasing doses of compound (e.g., compounds 1-269) ranging from 1 μM to 80 μM. Relative cell numbers were analyzed after 48 hours using 3-(4,5-dimethylthiazol-2-yl)-5-(3-carboxymethoxyphenyl)-2-(4-sulfophenyl)-2H-tetrazolium (MTS) assay (Promega) according to the manufacturer's instructions.
The cell viability data was analyzed with GraphPad Prism software. The values were log transformed and analyzed with non-linear regression (curve-fit) using log(inhibitor) vs. response-variable slope (four parameters) and constraining the bottom to equal zero. Unless otherwise indicated, the GI50 values provided in Table 113 correspond to the LNCaP cell viability assays.

Row | Structure (SMILES) | GI50 [µM]
1 | CN(C)CC(NS(=O)(=O)c1cccc(OC(F)(F)F)c1[N+](=O)[O-])c1ccc(Cl)c(Cl)c1 (stereo not shown) [Compound 223, N-(1-(3,4-dichlorophenyl)-2-(dimethylamino)ethyl)-2-nitro-3-(trifluoromethoxy)benzenesulfonamide] | 57.4

Same assay, conditions: Homo sapiens, LNCaP, 48 h, LNCaP cell line

Row | Structure (SMILES) | GI50 [µM]
2 | Cc1ccc(CNS(=O)(=O)c2ccc(OC(F)(F)F)cc2)c(OCC2CC2)c1 [Compound 75, N-(2-(cyclopropylmethoxy)-4-methylbenzyl)-4-(trifluoromethoxy)benzenesulfonamide] | 30
3 | CCOC(=O)C[C@@H](NS(=O)(=O)c1ccc(OC(F)(F)F)cc1)c1ccccc1Cl [Compound 14, Ethyl (R)-3-(2-chlorophenyl)-3-((4-(trifluoromethoxy)phenyl)sulfonamido)propanoate] | 51.9
4 | NCC(NS(=O)(=O)c1ccc(OC(F)(F)F)cc1)c1ccc(Cl)c(Cl)c1 (stereo not shown) [Compound 225, N-(2-amino-1-(3,4-dichlorophenyl)ethyl)-4-(trifluoromethoxy)benzenesulfonamide hydrochloride] | 21.8
5 | CC1CCN(c2ccccc2CNS(=O)(=O)c2ccc(OC(F)(F)F)cc2)CC1 [Compound 87, N-(2-(4-methylpiperidin-1-yl)benzyl)-4-(trifluoromethoxy)benzenesulfonamide] | 23
6 | CN(C)CC(NS(=O)(=O)c1cccc(-c2ccccc2)c1)c1ccc(Cl)c(Cl)c1 (stereo not shown) [Compound 144, N-(1-(3,4-dichlorophenyl)-2-(dimethylamino)ethyl)-[1,1′-biphenyl]-3-sulfonamide] | 14.4
7 | O=S(=O)(NCC1(c2ccc(Cl)cc2)CCC1)c1ccc(OC(F)(F)F)cc1 [Compound 229, N-((1-(4-chlorophenyl)cyclobutyl)methyl)-4-(trifluoromethoxy)benzenesulfonamide] | 42.5
8 | CN(C)CC(c1ccc(Cl)c(Cl)c1)N(C)S(=O)(=O)c1ccc(OC(F)(F)F)cc1 (stereo not shown) [Compound 250, N-(1-(3,4-dichlorophenyl)-2-(dimethylamino)ethyl)-N-methyl-4-(trifluoromethoxy)benzenesulfonamide] | 39.6
9 | CN(C)CC(NS(=O)(=O)c1ccc(Nc2ccccc2)cc1)c1ccc(Cl)c(Cl)c1 (stereo not shown) [Compound 188, N-(1-(3,4-dichlorophenyl)-2-(dimethylamino)ethyl)-4-(phenylamino)benzenesulfonamide] | 13.6
10 | O=S(=O)(NC(CC(F)(F)F)c1ccccc1)c1ccc(OC(F)(F)F)cc1 (stereo not shown) [Compound 8, N-(3,3,3-trifluoro-1-phenylpropyl)-4-(trifluoromethoxy)benzenesulfonamide] | 38.1
11 | CCOC(=O)CC(NS(=O)(=O)c1ccc(OC(F)(F)F)cc1)c1ccc(C)cc1 (stereo not shown) [Compound 24] | 44.2
12 | CN(C)CC(NS(=O)(=O)c1ccc(OC(F)(F)F)cc1Cl)c1ccc(Cl)c(Cl)c1 (stereo not shown) [Compound 151, 2-chloro-N-(1-(3,4-dichlorophenyl)-2-(dimethylamino)ethyl)-4-(trifluoromethoxy)benzenesulfonamide] | 23.6
13 | CCOC(=O)C(CC1CC=CCC1)NS(=O)(=O)c1ccc(OC(F)(F)F)cc1 (stereo not shown) [Compound 13, Ethyl 3-(cyclohex-3-en-1-yl)-2-((4-(trifluoromethoxy)phenyl)sulfonamido)propanoate] | 53.5
14 | CC1(C)CC1(CNS(=O)(=O)c1ccc(OC(F)(F)F)cc1)c1ccc(F)cc1F (stereo not shown) [Compound 84, N-((1-(2,4-difluorophenyl)-2,2-dimethylcyclopropyl)methyl)-4-(trifluoromethoxy)benzenesulfonamide] | 18
15 | CCCCCc1ccc(S(=O)(=O)NC(CN(C)C)c2ccc(Cl)c(Cl)c2)cc1 (stereo not shown) [Compound 215, N-(1-(3,4-dichlorophenyl)-2-(dimethylamino)ethyl)-4-pentylbenzenesulfonamide] | 7.5
16 | COC(=O)CC(NS(=O)(=O)c1ccc(OC(F)(F)F)cc1)c1cccc(Br)c1 (stereo not shown) [Compound 38, Methyl 3-(3-bromophenyl)-3-((4-(trifluoromethoxy)phenyl)sulfonamido)propanoate] | 66.5
17 | O=S(=O)(N[C@@H](CO)c1ccc(Cl)c(Cl)c1)c1ccc(OC(F)(F)F)cc1 [Compound 121, (R)—N-(1-(3,4-dichlorophenyl)-2-hydroxyethyl)-4-(trifluoromethoxy)benzenesulfonamide] | 40.2

Row | Structure (SMILES) | GI50 [µM]
18 | COC(=O)C(Cc1ccccc1O)NS(=O)(=O)c1ccc(OC(F)(F)F)cc1 (stereo not shown) [Compound 111, Methyl 3-(2-hydroxyphenyl)-2-((4-(trifluoromethoxy)phenyl)sulfonamido)propanoate] | 50
19 | O=S(=O)(N[C@H](CO)c1ccc(Cl)c(Cl)c1)c1ccc(OC(F)(F)F)cc1 [Compound 122, (S)—N-(1-(3,4-dichlorophenyl)-2-hydroxyethyl)-4-(trifluoromethoxy)benzenesulfonamide] | 43.4
20 | COCCC(NS(=O)(=O)c1ccc(OC(F)(F)F)cc1)c1ccc(Cl)c(Cl)c1 (stereo not shown) [Compound 35, N-(1-(3,4-dichlorophenyl)-3-methoxypropyl)-4-(trifluoromethoxy)benzenesulfonamide] | 50.9
21 | COC(=O)C(C)C(NS(=O)(=O)c1ccc(OC(F)(F)F)cc1)c1ccccc1 (stereo not shown) [Compound 23] | 43.1
22 | CC(NS(=O)(=O)c1ccc(OC(F)(F)F)cc1)C1(c2ccc(Br)cc2)CC1 (stereo not shown) [Compound 70, N-(1-(1-(4-bromophenyl)cyclopropyl)ethyl)-4-(trifluoromethoxy)benzenesulfonamide] | 25
23 | O=S(=O)(NCC1(c2ccc(Br)cc2Cl)CC1)c1ccc(OC(F)(F)F)cc1 [Compound 80, N-((1-(4-bromo-2-chlorophenyl)cyclopropyl)methyl)-4-(trifluoromethoxy)benzenesulfonamide] | 23
24 | O=S(=O)(NCC1(c2ccc(Cl)cc2)CCCC1)c1ccc(OC(F)(F)F)cc1 [Compound 244, N-((1-(4-chlorophenyl)cyclopentyl)methyl)-4-(trifluoromethoxy)benzenesulfonamide] | 56.1
25 | O=S(=O)(NCc1cc(Cl)ccc1OC(F)F)c1ccc(OC(F)(F)F)cc1 [Compound 62, N-(5-chloro-2-(difluoromethoxy)benzyl)-4-(trifluoromethoxy)benzenesulfonamide] | 70
26 | CCCOC1CCN(CC(NS(=O)(=O)c2ccc(OC(F)(F)F)cc2)c2ccccc2)CC1 (stereo not shown) [Compound 118, N-(1-phenyl-2-(4-propoxypiperidin-1-yl)ethyl)-4-(trifluoromethoxy)benzenesulfonamide] | 42.4
27 | Cc1ccc(C2(CNS(=O)(=O)c3ccc(OC(F)(F)F)cc3)CC2)c(C)c1 [Compound 60, N-((1-(2,4-dimethylphenyl)cyclopropyl)methyl)-4-(trifluoromethoxy)benzenesulfonamide] | 44
28 | CN(C)CC(NS(=O)(=O)c1cccc(OC(F)(F)F)c1)c1ccc(Cl)c(Cl)c1 (stereo not shown) [Compound 128, N-(1-(3,4-dichlorophenyl)-2-(dimethylamino)ethyl)-3-(trifluoromethoxy)benzenesulfonamide] | 21.1
29 | COc1ccc([C@@H]2[C@@H](CNS(=O)(=O)c3ccc(OC(F)(F)F)cc3)CCN2C)cc1 (racemic) [Compound 106, Rac-N-(((2S,3R)-2-(4-methoxyphenyl)-1-methylpyrrolidin-3-yl)methyl)-4-(trifluoromethoxy)benzenesulfonamide] | 24
30 | CN1CCN(CC(NS(=O)(=O)c2ccc(Oc3ccc(C(F)(F)F)cc3)cc2)c2ccc(Cl)c(Cl)c2)CC1 (stereo not shown) [Compound 233, N-(1-(3,4-dichlorophenyl)-2-(4-methylpiperazin-1-yl)ethyl)-4-(4-(trifluoromethyl)phenoxy)benzenesulfonamide] | 6.19
31 | O=S(=O)(NCCNS(=O)(=O)c1ccc(Cl)cc1F)c1ccc(OC(F)(F)F)cc1 [Compound 97, 4-chloro-2-fluoro-N-(2-((4-(trifluoromethoxy)phenyl)sulfonamido)ethyl)benzenesulfonamide] | 41
32 | O=S(=O)(NC(Cc1cccc(Br)c1)CC(F)(F)F)c1ccc(OC(F)(F)F)cc1 (stereo not shown) [Compound 44, N-(1-(3-bromophenyl)-4,4,4-trifluorobutan-2-yl)-4-(trifluoromethoxy)benzenesulfonamide] | 59
33 | CN(C)CC(NS(=O)(=O)c1ccc(Oc2cccc(F)c2)cc1)c1ccc(Cl)c(Cl)c1 (stereo not shown) [Compound 220, N-(1-(3,4-dichlorophenyl)-2-(dimethylamino)ethyl)-4-(3-fluorophenoxy)benzenesulfonamide] | 21.1

Same assay, conditions: LNCaP cell line, 48 hours

Row | Structure (SMILES) | GI50 [µM]
34 | CN(C)CC(NS(=O)(=O)c1ccc(OC(F)(F)F)c(Cl)c1)c1ccc(Cl)c(Cl)c1 (single isomer, unassigned) [Compound 202, 3-chloro-N-(1-(3,4-dichlorophenyl)-2-(dimethylamino)ethyl)-4-(trifluoromethoxy)benzenesulfonamide] | 21.6
35 | CN(C)CC(NS(=O)(=O)c1ccc(Oc2ccc(C(F)(F)F)cc2)cc1)c1ccc(Cl)c(Cl)c1 (single isomer, unassigned) [Compound 173, N-(1-(3,4-dichlorophenyl)-2-(dimethylamino)ethyl)-4-(4-(trifluoromethyl)phenoxy)benzenesulfonamide] | 13
36 | CN(C)CC(NS(=O)(=O)c1ccc(Oc2ccc(C(F)(F)F)cc2)cc1)c1ccc(Cl)c(Cl)c1 (single isomer, unassigned) [Compound 172, N-(1-(3,4-dichlorophenyl)-2-(dimethylamino)ethyl)-4-(4-(trifluoromethyl)phenoxy)benzenesulfonamide] | 6.04
37 | CN(C)CC(NS(=O)(=O)c1ccc(OC(F)(F)F)cc1)c1ccc(Cl)cc1 (single isomer, unassigned) [Compound 180, N-(1-(4-chlorophenyl)-2-(dimethylamino)ethyl)-4-(trifluoromethoxy)benzenesulfonamide] | 51.3

Reference: patent US20240174603A1 (Rappta Therapeutics Oy, priority 2021, published 2024)
